This note sets out measurements from US10899769B2, “Imidazopiperazinone inhibitors of transcription activating proteins” (Board of Regents, The University of Texas System, priority 2018, dated 2021).

For test [1], the target named is GST-CBP(1081-1197) bromodomain (Homo sapiens (Human), UniProt Q92793). The test can be described thus: CBP AlphaScreen Assay. The conditions noted are these: binding to biotin-H4(1-21) Ac-K5/8/12/16. The protocol: (§1) Specific binding of the CBP or BRD4 bromodomain to the acetylated peptide derived from the H4 histone substrate (tetra acetylated H4(1-21) Ac-K5/8/12/16) was measured in absence or presence of inhibitors. The GST tagged bromodomains of CBP (1081-1197) and BRD4 (49-170) were obtained from BPS Bioscience and binding to the biotinylated H4(1-21) Ac-K5/8/12/16 (AnaSpec. 64989) was assessed via AlphaScreen technology (Perkin Elmer).
(§2) 5 nM GST-CBP(1081-1197) and 20 nM biotin-H4(1-21) Ac-K5/8/12/16 (AnaSpec. 64989) were incubated with varying concentrations of CBP inhibitors in 15 μL of buffer containing 50 mM HEPES 7.5, […], 1 mM TCEP, and 0.003% Tween-20. After 30 minutes incubation at room temperature, 15 μL of detection buffer (BPS Bio. 33006) containing 7 μg/mL of Glutathione AlphaLisa acceptor beads (Perkin Elmer AL109) and 14 μg/mL of Streptavidin donor beads (Perkin Elmer 676002) was then added to the previous mixture. The reaction was incubated for an additional 2 hours at room temperature, and the AlphaScreen signal was quantified using the Envision Multilabel plate reader. As negative control, GST-CBP(1081-1197) was incubated with the non-acetylated biotin-H4(1-21) peptide(AnaSpec. 62555) and in presence of 0.25% of final DMSO concentration.
(§3) the binding of 2.5 nM of BRD4(49-170) to 10 nM biotin-H4(1-21) Ac-K5/8/12/16 (AnaSpec. 64989) was assessed following the same procedure described for the CBP assay. The standard dose response curves were fitted by Genedata Screener software using the variable-slope model: Signal=Signalnegative control+(SignalDMSO control−Signalnegative control)/(1+(IC50/Dose)^Hill slope).
(§4) Only Signal and Dose in the equation were treated as know values.
A general note: Alpha assays give light when donor and acceptor beads are brought close together.

Test [2] concerns the target BRD4(49-170) bromodomain (Homo sapiens (Human), UniProt O60885). The test can be described thus: BRD4 AlphaScreen Assay. The conditions noted are these: binding to biotin-H4(1-21) Ac-K5/8/12/16. As to the method:
as §1, §2, §3, §4

GST-CBP(1081-1197) bromodomain, sequence (Q92793 1081-1197): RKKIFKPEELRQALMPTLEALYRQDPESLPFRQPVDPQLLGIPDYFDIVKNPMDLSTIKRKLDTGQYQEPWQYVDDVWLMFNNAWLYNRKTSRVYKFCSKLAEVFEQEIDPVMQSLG

`CC1C(=O)N(C)Cc2c(-c3cccc4nc(-c5cnn(C)c5)c(C#N)cc34)nc(C3CCOCC3)n21` (single isomer, unassigned) [Example 8a, 5-(5,7-dimethyl-6-oxo-3-(tetrahydro-2H-pyran-4-yl)-5,6,7,8-tetrahydroimidazo[1,5-a]pyrazin-1-yl)-2-(1-methyl-1H-pyrazol-4-yl)quinoline-3-carbonitrile]: the results for the half-maximal inhibitory concentration (IC50) in test [1] and in test [2] were 513 nM and no less than 25000 nM, respectively.

Turning to `CC1C(=O)N(C)Cc2c(-c3cccc4nc(-c5cnn(C)c5)c(C#N)cc34)nc(C3CCOCC3)n21` (single isomer, unassigned) [Example 8b, 5-(5,7-dimethyl-6-oxo-3-(tetrahydro-2H-pyran-4-yl)-5,6,7,8-tetrahydroimidazo[1,5-a]pyrazin-1-yl)-2-(1-methyl-1H-pyrazol-4-yl)quinoline-3-carbonitrile], the IC50 in test [1] was 2 nM; in test [2], 332 nM.

For the molecule `CC1C(=O)N(C)Cc2c(-c3cccc4cc(C5CCOCC5)ncc34)nc(C3CCOCC3)n21` (single isomer, unassigned) [Example 15a, 5,7-dimethyl-3-(tetrahydro-2H-pyran-4-yl)-1-(3-(tetrahydro-2H-pyran-4-yl)isoquinolin-8-yl)-7,8-dihydroimidazo[1,5-a]pyrazin-6(5H)-one], the IC50 came to 170 nM in test [1] and 19700 nM in test [2].

Take `CC1C(=O)N(C)Cc2c(-c3cccc4cc(C5CCOCC5)ncc34)nc(C3CCOCC3)n21` (single isomer, unassigned) [Example 15b, 5,7-dimethyl-3-(tetrahydro-2H-pyran-4-yl)-1-(3-(tetrahydro-2H-pyran-4-yl)isoquinolin-8-yl)-7,8-dihydroimidazo[1,5-a]pyrazin-6(5H)-one]: the IC50 in test [1] stood at 2 nM; in test [2] it was 195 nM.

For the molecule `CC1C(=O)N(C)Cc2c(-c3cccc4cc(N5CCOCC5)ncc34)nc(C3CCOCC3)n21` (single isomer, unassigned) [Example 16a, 5,7-Dimethyl-1-(3-morpholinoisoquinolin-8-yl)-3-(tetrahydro-2H-pyran-4-yl)-7,8-dihydroimidazo[1,5-a]pyrazin-6(5H)-one], the values for the IC50 in test [1] and in test [2] were 1120 nM and no less than 25000 nM, respectively.

On to `CC1C(=O)N(C)Cc2c(-c3cccc4cc(N5CCOCC5)ncc34)nc(C3CCOCC3)n21` (single isomer, unassigned) [Example 16b, 5,7-Dimethyl-1-(3-morpholinoisoquinolin-8-yl)-3-(tetrahydro-2H-pyran-4-yl)-7,8-dihydroimidazo[1,5-a]pyrazin-6(5H)-one], for which the results for the half-inhibitory concentration (IC50) in test [1] and in test [2] were 3 nM and 353 nM, respectively.

With `CC1C(=O)N(C)Cc2c(-c3cccc4nc(-c5cnn(C)c5)c(C(F)(F)F)cc34)nc(C3CCOCC3)n21` (single isomer, unassigned) [Example 26a, 5,7-Dimethyl-1-(2-(1-methyl-1H-pyrazol-4-yl)-3-(trifluoromethyl)quinolin-5-yl)-3-(tetrahydro-2H-pyran-4-yl)-7,8-dihydroimidazo[1,5-a]pyrazin-6(5H)-one], the IC50 turned out to be 2 nM in test [1] and 193 nM in test [2].

For the molecule `CC1C(=O)N(C)Cc2c(-c3cccc4nc(-c5cnn(C)c5)c(C(F)(F)F)cc34)nc(C3CCOCC3)n21` (single isomer, unassigned) [Example 26b, 5,7-Dimethyl-1-(2-(1-methyl-1H-pyrazol-4-yl)-3-(trifluoromethyl)quinolin-5-yl)-3-(tetrahydro-2H-pyran-4-yl)-7,8-dihydroimidazo[1,5-a]pyrazin-6(5H)-one], the IC50 in test [1] worked out at 271 nM; in test [2], 11700 nM.

On to `CC1C(=O)N(C)Cc2c(-c3cccc4nc(-c5cnn(C)c5)c(C(F)F)cc34)nc(C3CCS(=O)(=O)CC3)n21` (single isomer, unassigned) [Example 29a, 1-(3-(Difluoromethyl)-2-(1-methyl-1H-pyrazol-4-yl)quinolin-5-yl)-3-(1,1-dioxidotetrahydro-2H-thiopyran-4-yl)-5,7-dimethyl-7,8-dihydroimidazo[1,5-a]pyrazin-6(5H)-one], for which the figures for the IC50 in test [1] and in test [2] were 6500 nM and no less than 25000 nM, respectively.

As for `CC1C(=O)N(C)Cc2c(-c3cccc4nc(-c5cnn(C)c5)c(C(F)F)cc34)nc(C3CCS(=O)(=O)CC3)n21` (single isomer, unassigned) [Example 29b, 1-(3-(Difluoromethyl)-2-(1-methyl-1H-pyrazol-4-yl)quinolin-5-yl)-3-(1,1-dioxidotetrahydro-2H-thiopyran-4-yl)-5,7-dimethyl-7,8-dihydroimidazo[1,5-a]pyrazin-6(5H)-one], the IC50 in test [1] came out at 32 nM; in test [2], 592 nM.

As to `Cc1cn(-c2cc3cccc(-c4nc(C5CCOCC5)n5c4CN(C)C(=O)C5C)c3cn2)cn1` (single isomer, unassigned) [Example 30a, 5,7-dimethyl-1-(3-(4-methyl-1H-imidazol-1-yl)isoquinolin-8-yl)-3-(tetrahydro-2H-pyran-4-yl)-7,8-dihydroimidazo[1,5-a]pyrazin-6(5H)-one], the IC50 in test [1] was found to be 1 nM; in test [2], 96 nM.

In the case of `Cc1cn(-c2cc3cccc(-c4nc(C5CCOCC5)n5c4CN(C)C(=O)C5C)c3cn2)cn1` (single isomer, unassigned) [Example 30b, 5,7-dimethyl-1-(3-(4-methyl-1H-imidazol-1-yl)isoquinolin-8-yl)-3-(tetrahydro-2H-pyran-4-yl)-7,8-dihydroimidazo[1,5-a]pyrazin-6(5H)-one], the IC50 in test [1] was 373 nM; in test [2] it was 18600 nM.

With `Cc1ncc(-c2cc3cccc(-c4nc(C5CCOCC5)n5c4CN(C)C(=O)C5C)c3cn2)s1` (single isomer, unassigned) [Example 31a, 5,7-Dimethyl-1-(3-(2-methylthiazol-5-yl)isoquinolin-8-yl)-3-(tetrahydro-2H-pyran-4-yl)-7,8-dihydroimidazo[1,5-a]pyrazin-6(5H)-one], the IC50 in test [1] is 38 nM; in test [2], 2690 nM.

As to `Cc1ncc(-c2cc3cccc(-c4nc(C5CCOCC5)n5c4CN(C)C(=O)C5C)c3cn2)s1` (single isomer, unassigned) [Example 31b, 5,7-Dimethyl-1-(3-(2-methylthiazol-5-yl)isoquinolin-8-yl)-3-(tetrahydro-2H-pyran-4-yl)-7,8-dihydroimidazo[1,5-a]pyrazin-6(5H)-one], the half-maximal inhibitory concentration (IC50) in test [1] was 2 nM; in test [2], 106 nM.

Turning to `CC1C(=O)N(C)Cc2c(-c3cccc4nc(-c5cnn(C)c5)c(C(F)F)cc34)nc(C3(C)CCOCC3)n21` (single isomer, unassigned) [Example 32a, 1-(3-(Difluoromethyl)-2-(1-methyl-1H-pyrazol-4-yl)quinolin-5-yl)-5,7-dimethyl-3-(4-methyltetrahydro-2H-pyran-4-yl)-7,8-dihydroimidazo[1,5-a]pyrazin-6(5H)-one], the IC50 is 490 nM in test [1] and no less than 25000 nM in test [2].

`CC1C(=O)N(C)Cc2c(-c3cccc4nc(-c5cnn(C)c5)c(C(F)F)cc34)nc(C3(C)CCOCC3)n21` (single isomer, unassigned) [Example 32b, 1-(3-(Difluoromethyl)-2-(1-methyl-1H-pyrazol-4-yl)quinolin-5-yl)-5,7-dimethyl-3-(4-methyltetrahydro-2H-pyran-4-yl)-7,8-dihydroimidazo[1,5-a]pyrazin-6(5H)-one]: the values for the IC50 in test [1] and in test [2] were 2 nM and 351 nM, respectively.

Consider `Cc1cn(-c2cc3ccc(F)c(-c4nc(C5CCOCC5)n5c4CN(C)C(=O)C5C)c3cn2)cn1` (single isomer, unassigned) [Example 33a, 1-(7-fluoro-3-(4-methyl-1H-imidazol-1-yl)isoquinolin-8-yl)-5,7-dimethyl-3-(tetrahydro-2H-pyran-4-yl)-7,8-dihydroimidazo[1,5-a]pyrazin-6(5H)-one], for which the half-maximal inhibitory concentration (IC50) in test [1] is 1610 nM; in test [2], no less than 25000 nM.

Turning to `Cc1cn(-c2cc3ccc(F)c(-c4nc(C5CCOCC5)n5c4CN(C)C(=O)C5C)c3cn2)cn1` (single isomer, unassigned) [Example 33b, 1-(7-fluoro-3-(4-methyl-1H-imidazol-1-yl)isoquinolin-8-yl)-5,7-dimethyl-3-(tetrahydro-2H-pyran-4-yl)-7,8-dihydroimidazo[1,5-a]pyrazin-6(5H)-one], the IC50 in test [1] was found to be 6 nM; in test [2] it was 2120 nM.

As for `CC1C(=O)N(C)Cc2c(-c3c(F)ccc4cc(C5CCOCC5)ncc34)nc(C3CCOCC3)n21` (single isomer, unassigned) [Example 34a, 1-(7-Fluoro-3-(tetrahydro-2H-pyran-4-yl)isoquinolin-8-yl)-5,7-dimethyl-3-(tetrahydro-2H-pyran-4-yl)-7,8-dihydroimidazo[1,5-a]pyrazin-6(5H)-one], the concentration for half-maximal inhibition (IC50) in test [1] is 2460 nM; in test [2], no less than 25000 nM.

For orientation: IC50 means the concentration that gives 50% inhibition.
